In patent US20250295646A1, “METHODS OF USE OF T-TYPE CALCIUM CHANNEL MODULATORS” (Praxis Precision Medicines, Inc., priority 2022, published 2025):

Key:
[1] = Within-participant escalating dose trial Part A (5-20 mg): pharmacokinetics; type: in vivo, human; details: single 5 mg dose, healthy volunteers
Procedure: In Part A, an open label trial was conducted.

[2] = test system: adult patients with essential tremor; experiment: Essential tremor trial Example 16 Part B open-label titration phase: TETRAS, mADL, ADL efficacy; type: in vivo, human; set-up: reduction in upper limb tremor amplitude / LS mean reduction in upper limb tremor amplitude / reduction in combined upper limb tremor amplitude: concentration or dose not given beside the values; details: for TETRAS ADL Score CFB LS Mean / TETRAS CULS Score CFB LS Mean / TETRAS PS Item 6: Archimedes Spiral (Left) Score CFB LS Mean / TETRAS PS Item 6: Archimedes Spiral (Right) Score CFB LS Mean / TETRAS PS Item 7: Handwriting Score CFB LS Mean / TETRAS PSTS Score CFB LS Mean / TETRAS ULS Score CFB LS Mean / TETRAS mADL (TETRAS modified total score) Score CFB LS Mean / TETRAS ADL CTA LS Mean % / TETRAS CULS CTA LS Mean % / TETRAS PS Item 6: Archimedes Spiral (Left) CTA LS Mean % / TETRAS PS Item 6: Archimedes Spiral (Right) CTA LS Mean % / TETRAS PS Item 7: Handwriting CTA LS Mean % / TETRAS PSTS CTA LS Mean % / TETRAS ULS CTA LS Mean % / TETRAS mADL CTA LS Mean %: Part B - OLT, FAS; for TETRAS ADL Score CFB LS Mean / TETRAS CULS Score CFB LS Mean / TETRAS PS Item 6: Archimedes Spiral (Left) Score CFB LS Mean / TETRAS PS Item 6: Archimedes Spiral (Right) Score CFB LS Mean / TETRAS PS Item 7: Handwriting Score CFB LS Mean / TETRAS PSTS Score CFB LS Mean / TETRAS ULS Score CFB LS Mean / TETRAS mADL (TETRAS modified total score) Score CFB LS Mean: change from pre-dose baseline; for TETRAS ADL CTA LS Mean % / TETRAS CULS CTA LS Mean % / TETRAS PS Item 6: Archimedes Spiral (Left) CTA LS Mean % / TETRAS PS Item 6: Archimedes Spiral (Right) CTA LS Mean % / TETRAS PS Item 7: Handwriting CTA LS Mean % / TETRAS PSTS CTA LS Mean % / TETRAS ULS CTA LS Mean % / TETRAS mADL CTA LS Mean %: from pre-dose baseline; for TETRAS ADL score, LS mean change from pre-dose baseline / TETRAS combined upper limb score, LS mean change from pre-dose baseline / TETRAS upper limb score, LS mean change from pre-dose baseline / mADL score, LS mean change from pre-dose baseline / reduction in combined upper limb tremor amplitude / reduction in upper limb tremor amplitude / ADL, LS mean change from pre-dose baseline / LS mean reduction in upper limb tremor amplitude / mADL, LS mean change from pre-dose baseline: Part B OLT
Procedure: A two part trial (Part A and Part B as described below) was conducted to study the efficacy, safety, tolerability, and pharmacokinetics of the compound of formula (I) in adult patients with essential tremor (ET).
Participants were males and females ages 18 and older with a clinical diagnosis of ET. Participants who have a history of any other medical, neurological, or psychiatric condition that may explain or cause tremor were excluded. Participants who have previously received treatment with formula (I) in any clinical trial (including Part A of the current trial for participants enrolling in Part B) were also excluded.
In Part B, an open label titration phase and a randomized, double-blind, placebo-controlled trial was conducted. […] During the withdrawal phase, patients either continued receiving formula (I) at their current dose or switched to placebo, depending on the randomization, for 14 days (Day 43 to Day 56).

[3] = test system: adult patients with essential tremor; experiment: Example 16 Part B: QUEST total score; type: in vivo, human; details: for QUEST total score, LS mean change from randomization baseline (Day 42): Formula (I) group; for QUEST total score, LS mean change from pre-dose baseline: Part B OLT
Description: Patients were scheduled for Safety Follow-up on Day 70 (±1 day) in the clinic for the final clinical trial assessment.

[4] = Within-participant escalating dose trial Part B (20-120 mg titration): pharmacokinetics; details: titrated dosing schedule
Procedure: Each participant completed 3 study periods: Screening, Treatment period (12 or 31 days), and Safety follow-up.
Participants were healthy males and females between the ages of 18 and 55 years old.
In Part B, a randomized controlled trial was conducted.

[5] = Day 7, subset with baseline upper limb scores ≥10
[6] = Day 21, subset with baseline upper limb scores ≥10

CC(C)(C)NC(=O)CN1CCC(CNC(=O)c2cc(F)cc(Cl)c2)CC1 [compound of formula (I), N-((1-(2-(tert-butylamino)-2-oxoethyl)piperidin-4-yl)methyl)-3-chloro-5-fluorobenzamide]
time by which plasma concentrations were quantifiable [1]: ≤ 0.50 h | TETRAS ADL Score CFB LS Mean ([2]; Day 7): −1.986 | TETRAS CULS Score CFB LS Mean ([2]; Day 7): −0.909 | TETRAS PS Item 6: Archimedes Spiral (Left) Score CFB LS Mean ([2]; Day 7): 0.221 | TETRAS PS Item 6: Archimedes Spiral (Right) Score CFB LS Mean ([2]; Day 7): 0.006 | TETRAS PS Item 7: Handwriting Score CFB LS Mean ([2]; Day 7): −0.019 | TETRAS PSTS Score CFB LS Mean ([2]; Day 7): −1.253 | TETRAS ULS Score CFB LS Mean ([2]; Day 7): −0.967 | TETRAS mADL (TETRAS modified total score) Score CFB LS Mean ([2]; Day 7): −2.862 | TETRAS ADL CTA LS Mean % ([2]; Day 7): −7.29% | TETRAS CULS CTA LS Mean % ([2]; Day 7): −9.1% | TETRAS PS Item 6: Archimedes Spiral (Left) CTA LS Mean % ([2]; Day 7): 22.4% | TETRAS PS Item 6: Archimedes Spiral (Right) CTA LS Mean % ([2]; Day 7): 0.6% | TETRAS PS Item 7: Handwriting CTA LS Mean % ([2]; Day 7): −2.2% | TETRAS PSTS CTA LS Mean % ([2]; Day 7): −8.6% | TETRAS ULS CTA LS Mean % ([2]; Day 7): −16.9% | TETRAS mADL CTA LS Mean % ([2]; Day 7): −18.49% | TETRAS ADL Score CFB LS Mean ([2]; Day 21): −3.475 | TETRAS CULS Score CFB LS Mean ([2]; Day 21): −1.320 | TETRAS PS Item 6: Archimedes Spiral (Left) Score CFB LS Mean ([2]; Day 21): −0.012 | TETRAS PS Item 6: Archimedes Spiral (Right) Score CFB LS Mean ([2]; Day 21): −0.240 | TETRAS PS Item 7: Handwriting Score CFB LS Mean ([2]; Day 21): 0.107 | TETRAS PSTS Score CFB LS Mean ([2]; Day 21): −1.449 | TETRAS ULS Score CFB LS Mean ([2]; Day 21): −1.143 | TETRAS mADL (TETRAS modified total score) Score CFB LS Mean ([2]; Day 21): −2.812 | TETRAS ADL CTA LS Mean % ([2]; Day 21): −12.02% | TETRAS CULS CTA LS Mean % ([2]; Day 21): −12.9% | TETRAS PS Item 6: Archimedes Spiral (Left) CTA LS Mean % ([2]; Day 21): −1.3% | TETRAS PS Item 6: Archimedes Spiral (Right) CTA LS Mean % ([2]; Day 21): −24.2% | TETRAS PS Item 7: Handwriting CTA LS Mean % ([2]; Day 21): 11.5% | TETRAS PSTS CTA LS Mean % ([2]; Day 21): −9.9% | TETRAS ULS CTA LS Mean % ([2]; Day 21): −19.7% | TETRAS mADL CTA LS Mean % ([2]; Day 21): −14.31% | TETRAS ADL Score CFB LS Mean ([2]; Day 42, 6 hours post-dose): −8.207 | TETRAS CULS Score CFB LS Mean ([2]; Day 42, 6 hours post-dose): −1.882 | TETRAS PS Item 6: Archimedes Spiral (Left) Score CFB LS Mean ([2]; Day 42, 6 hours post-dose): −0.072 | TETRAS PS Item 6: Archimedes Spiral (Right) Score CFB LS Mean ([2]; Day 42, 6 hours post-dose): −0.239 | TETRAS PS Item 7: Handwriting Score CFB LS Mean ([2]; Day 42, 6 hours post-dose): −0.054 | TETRAS PSTS Score CFB LS Mean ([2]; Day 42, 6 hours post-dose): −2.771 | TETRAS ULS Score CFB LS Mean ([2]; Day 42, 6 hours post-dose): −2.090 | TETRAS mADL (TETRAS modified total score) Score CFB LS Mean ([2]; Day 42, 6 hours post-dose): −6.669 | TETRAS ADL CTA LS Mean % ([2]; Day 42, 6 hours post-dose): −29.59% | TETRAS CULS CTA LS Mean % ([2]; Day 42, 6 hours post-dose): −17.9% | TETRAS PS Item 6: Archimedes Spiral (Left) CTA LS Mean % ([2]; Day 42, 6 hours post-dose): −8.0% | TETRAS PS Item 6: Archimedes Spiral (Right) CTA LS Mean % ([2]; Day 42, 6 hours post-dose): −24.1% | TETRAS PS Item 7: Handwriting CTA LS Mean % ([2]; Day 42, 6 hours post-dose): −6.0% | TETRAS PSTS CTA LS Mean % ([2]; Day 42, 6 hours post-dose): −18.1% | TETRAS ULS CTA LS Mean % ([2]; Day 42, 6 hours post-dose): −33.0% | TETRAS mADL CTA LS Mean % ([2]; Day 42, 6 hours post-dose): −42.04% | TETRAS ADL score, LS mean change from pre-dose baseline ([2]; Day 7): −1.986 | TETRAS combined upper limb score, LS mean change from pre-dose baseline ([2]; Day 7): −0.909 | TETRAS upper limb score, LS mean change from pre-dose baseline ([2]; Day 7): −0.967 | mADL score, LS mean change from pre-dose baseline ([2]; Day 7): −2.862 | reduction in combined upper limb tremor amplitude ([2]; Day 7): 9.1% | reduction in upper limb tremor amplitude ([2]; Day 7): 16.9% | ADL, LS mean change from pre-dose baseline [2, 5]: −2.222 | LS mean reduction in upper limb tremor amplitude [2, 5]: 22.9% | mADL, LS mean change from pre-dose baseline [2, 5]: −3.011 | TETRAS ADL score, LS mean change from pre-dose baseline ([2]; Day 21): −3.475 | TETRAS combined upper limb score, LS mean change from pre-dose baseline ([2]; Day 21): −1.320 | TETRAS upper limb score, LS mean change from pre-dose baseline ([2]; Day 21): −1.143 | mADL score, LS mean change from pre-dose baseline ([2]; Day 21): −2.812 | reduction in combined upper limb tremor amplitude ([2]; Day 21): 12.9% | reduction in upper limb tremor amplitude ([2]; Day 21): 19.7% | ADL, LS mean change from pre-dose baseline [2, 6]: −4.444 | LS mean reduction in upper limb tremor amplitude [2, 6]: 26.7% | mADL, LS mean change from pre-dose baseline [2, 6]: −3.773 | TETRAS ADL score, LS mean change from pre-dose baseline ([2]; Day 42): −8.207 | TETRAS combined upper limb score, LS mean change from pre-dose baseline ([2]; Day 42): −1.882 | TETRAS upper limb score, LS mean change from pre-dose baseline ([2]; Day 42): −2.090 | mADL score, LS mean change from pre-dose baseline ([2]; Day 42): −6.669 | reduction in combined upper limb tremor amplitude ([2]; Day 42): 17.9% | reduction in upper limb tremor amplitude ([2]; Day 42): 33.0% | QUEST total score, LS mean change from randomization baseline (Day 42) ([3]; Day 70 follow-up): 1.741 | QUEST total score, LS mean change from pre-dose baseline ([3]; Day 7): −0.561 | QUEST total score, LS mean change from pre-dose baseline ([3]; Day 21): −5.933 | QUEST total score, LS mean change from pre-dose baseline ([3]; Day 42): −8.203 | QUEST total score, LS mean change from randomization baseline (Day 42) ([3]; Part B RWD, Day 56): −1.322 | increase of Cmax and AUC24 above values of a lower dosage not tolerated without titration [4]: 2-3 fold
